Test results as given in US20210024507A1, “Compounds” (Step Pharma S.A.S., priority 2018, published 2021).
pIC50: −log10 of the molar value.

Tests used:
human CTPS1 [1] = target: T1, human CTPS1 (Homo sapiens, UniProt P17812); assay: Human CTPS1 enzyme inhibition (ADP-Glo Max assay); type: biochemical; conditions: human full length CTPS1, 25° C., read-out: CTPS1 (Human CTPS1 Enzyme Inhibition, IC50 grouped by potency range)
T1 construct: purchased Proteros biostructures GmbH
T1 sequence (P17812 1-591): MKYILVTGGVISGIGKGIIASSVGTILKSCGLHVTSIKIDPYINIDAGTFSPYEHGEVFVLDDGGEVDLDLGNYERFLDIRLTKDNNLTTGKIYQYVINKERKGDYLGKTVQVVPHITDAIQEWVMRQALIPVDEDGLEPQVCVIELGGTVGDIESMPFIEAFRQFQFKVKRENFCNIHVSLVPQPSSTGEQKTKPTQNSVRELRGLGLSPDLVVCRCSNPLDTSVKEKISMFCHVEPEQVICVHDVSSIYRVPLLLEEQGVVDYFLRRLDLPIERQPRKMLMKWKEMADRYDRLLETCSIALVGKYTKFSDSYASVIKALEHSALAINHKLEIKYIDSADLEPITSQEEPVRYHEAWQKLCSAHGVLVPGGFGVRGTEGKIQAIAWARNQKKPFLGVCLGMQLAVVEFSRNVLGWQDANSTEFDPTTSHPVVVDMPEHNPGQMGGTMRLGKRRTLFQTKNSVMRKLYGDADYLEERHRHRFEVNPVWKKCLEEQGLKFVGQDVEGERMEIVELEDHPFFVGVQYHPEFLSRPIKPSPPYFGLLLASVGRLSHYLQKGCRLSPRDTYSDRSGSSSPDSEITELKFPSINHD
Method: The enzyme inhibitory activities of compounds invented against the target of interest were determined using the ADP-GIoTM Max assay (Promega, UK). Assays for human CTPS1 were performed in lx assay buffer containing 50mM Tris, 10mM MgCl2, 0.01% Tween-20, pH to 8.0 accordingly. Finally, immediately before use, L-cysteine was added to the lx assay buffer to a final concentration of 2mM. All reagents are from Sigma-Aldrich unless specified otherwise. Human full length active C-terminal FLAG-Hiss-tag CTPS1 (UniProtKB - P17812, CTPS[1-591]-[…]) was obtained from Proteros biostructures GmbH.
Assay Procedure 3× human CTPS1 protein was prepared in lx assay buffer to the final working protein concentration required for the reaction. A 2uL volume per well of 3x human CTPS1 protein was mixed with 2uL per well of 3× test compound (compound prepared in lx assay buffer to an appropriate final 3× compound concentration respective to the concentration response curve designed for the compounds under test) for 10 minutes at 25° C. The enzymatic reaction was then initiated by addition of a 2uL per well volume of a pre-mixed substrate mix (UltraPure ATP from ADP-GIo™ Max kit (0.31mM), GTP (0.034mM), UTP (0.48mM) and L-glutamine (0.186mM)) and the mixture was incubated for an appropriate amount of time within the determined linear phase of the reaction at 25° C. under sealed plate conditions with constant agitation at 500 revolutions per minute (rpm). ADP-GIo™ Max reagent was added for 60 minutes ([…] per well) and subsequently ADP-GIo™ Max development reagent was added for 60 minutes (12uL per well) prior to signal detection in a microplate reader (EnVision® Multilabel Reader, Perkin Elmer). Following each reagent addition over the course of the assay, assay plates were pulse centrifuged for 30 seconds at 500rpm.
In all cases, the enzyme converts ATP to ADP and the ADP-GIo™ Max reagent subsequently depletes any remaining endogenous ATP in the reaction system. The ADP-GIo™ Max detection reagent converts the ADP that has been enzymatically produced back into ATP and using ATP as a substrate together with luciferin for the enzyme luciferase, light is generated which produces a detectable luminescence. […] The percentage inhibition produced by each concentration of compound was calculated using the equation shown below: […]
(§1) Percentage inhibition was then plotted against compound concentration, and the 50% inhibitory concentration (IC50) was determined from the resultant concentration-response curve.

human CTPS1 [2] = assay: RapidFire/MS-based enzyme selectivity assay, human CTPS1; type: biochemical; conditions: calculated from the CTPS1 and CTPS2 IC50 values
Method: The enzyme inhibitory activities against each target isoform of interest may be determined for the compounds of the invention using an optimised RapidFire high-throughput mass spectrometry (RF/MS) assay format. RF/MS assays for both human CTPS1 and CTPS2 may be performed in assay buffer consisting of 50mM HEPES (Merck), 20mM MgCl2, 5mM KCI, 1mM DTT, 0.01% Tween-20, pH to 8.0 accordingly. Human full-length active C-terminal FLAG-His-tag CTPS1 (UniProtKB - P17812, CTPS[1-591]-[…]) may be obtained from Proteros biostructures GmbH. Human full length active C-terminal FLAG-His-Avi tagged CTPS2 (UniProtKB-Q9NRF8, CTPS2 [1-586]- […]) may be obtained from Harker Bio.
Human CTPS (1 or 2) protein may be prepared in lx assay buffer to the final working protein concentration required for the reaction. A 2uL volume per well of 2× CTPS (1 or 2) protein may be mixed with 40nL of compound using acoustic (ECHO) delivery and incubated for 10 minutes at 25° C. Each isoform enzymatic reaction may be subsequently initiated by addition of 2uL per well of a 2× substrate mix in assay buffer. For hCTPS1: ATP (0.3mM), UTP (0.2mM), GTP (0.07mM) and L-glutamine (0.1mM). For hCTPS2: ATP (0.1mM), UTP (0.04mM), GTP (0.03mM) and L-glutamine (0.1mM). Each mixture may be incubated for an appropriate amount of time per isoform within the determined linear phase of the reaction at 25° C. A 60uL volume of stop solution (1% formic acid with 0.5uM ^13C9-^15N3-CTP in H2O) may be added and the plate immediately heat-sealed and centrifuged for 10 minutes at 4,000rpm. Following centrifugation, plates may be loaded onto the Agilent RapidFire microfluidic solid phase extraction system coupled to an AP14000 triple quadrupole mass spectrometer (RF/MS) for analysis.
In all cases, the enzyme converts UTP to CTP. Highly specific and sensitive multiple reaction monitoring (MRM) MS methods may be optimised for the detection of the enzymatic reaction product, CTP, and the stable isotope labelled product standard ^13C9-^15N3-CTP. Readout for data analysis may be calculated as the ratio between the peak area of the product CTP and the internal standard ^13C9-^15N3-CTP. For data reporting, the following equation may be used:
[formula] (R=ratio/readout, P=product signal area, IS=internal standard signal area)
For each screening plate, the means of the negative (DMSO) and positive control values were used for the calculation of the respective assay window (S/B) and Z′ values. The median of the respective control values was used for calculation of percent inhibition according to the following equation:
[formula] (I=Inhibition, Rneg=median of negative control readout values, Rpos=median of positive control readout values, Rsample=sample readout value)
as §1
Fold selectivity between CTPS1 and CTPS2 was subsequently calculated according to the following equation: […]

pIC50 (human CTPS1 [1]) | Selectivity (fold selectivity between CTPS1 and CTPS2) (human CTPS1 [2]) | Structure (SMILES)
≥ 7.00 | +++ (>60 fold (+++)) | CCOc1cncc(-c2ccc(NC(=O)C(CC)c3cncc(NS(=O)(=O)C4CC4)n3)nc2)n1 (stereo not shown) [P201, 2-(6-(cyclopropanesulfonamido)pyrazin-2-yl)-N-(5-(6-ethoxypyrazin-2-yl)pyridin-2-yl)butanamide]
≥ 7.00 | ++ (>30-60 fold (++)) | CCOc1cncc(-c2ccc(NC(=O)C(CC)c3cccc(NS(=O)(=O)C4CC4)n3)nc2)n1 (stereo not shown) [P188, 2-(6-(cyclopropanesulfonamido)pyridin-2-yl)-N-(5-(6-ethoxypyrazin-2-yl)pyridin-2-yl)butanamide]
≥ 7.00 | +++ (>60 fold (+++)) | CCOc1cncc(-c2ccc(NC(=O)C(F)(CC)c3cncc(NS(=O)(=O)C4CC4)n3)nc2)n1 (single isomer, unassigned) [P206, 2-(6-(cyclopropanesulfonamido)pyrazin-2-yl)-N-(5-(6-ethoxypyrazin-2-yl)pyridin-2-yl)-2-fluorobutanamide]
≥ 7.00 | ++ (>30-60 fold (++)) | CCC(C(=O)Nc1ccc(-c2cncc(C(F)(F)F)n2)cn1)c1ccnc(NS(=O)(=O)C2CC2)n1 (stereo not shown) [P87, 2-(2-(cyclopropanesulfonamido)pyrimidin-4-yl)-N-(5-(6-(trifluoromethyl)pyrazin-2-yl)pyridin-2-yl)butanamide]
≥ 7.00 | +++ (>60 fold (+++)) | CCC(C(=O)Nc1ccc(-c2cncc(OC(C)C)n2)cn1)c1ccnc(NS(=O)(=O)C2CC2)n1 (stereo not shown) [P89, 2-(2-(cyclopropanesulfonamido)pyrimidin-4-yl)-N-(5-(6-isopropoxypyrazin-2-yl)pyridin-2-yl)butanamide]
≥ 7.00 | ++ (>30-60 fold (++)) | CCOc1cncc(-c2ccc(NC(=O)C(F)(CC)c3cncc(NS(=O)(=O)C4CC4)n3)nc2)n1 (stereo not shown) [P200, 2-(6-(cyclopropanesulfonamido)pyrazin-2-yl)-N-(5-(6-ethoxypyrazin-2-yl)pyridin-2-yl)-2-fluorobutanamide]
≥ 7.00 | +++ (>60 fold (+++)) | CCC(C(=O)Nc1ccc(-c2cncc(OCC(F)(F)F)n2)cc1F)c1ccnc(NS(=O)(=O)C2CC2)n1 (stereo not shown) [P98, 2-(2-(cyclopropanesulfonamido)pyrimidin-4-yl)-N-(2-fluoro-4-(6-(2,2,2-trifluoroethoxy)pyrazin-2-yl)phenyl)butanamide]
≥ 7.00 | +++ (>60 fold (+++)) | CCOc1cncc(-c2ccc(NC(=O)C(C)(CCOC)c3cncc(NS(=O)(=O)C4CC4)n3)nc2)n1 (stereo not shown) [P198, 2-(6-(cyclopropanesulfonamido)pyrazin-2-yl)-N-(5-(6-ethoxypyrazin-2-yl)pyridin-2-yl)-4-methoxy-2-methylbutanamide]
≥ 7.00 | + (2-30 fold (+)) | CCOc1cncc(-c2ccc(NC(=O)C(F)(CC)c3ccnc(NS(=O)(=O)C4CC4)n3)nc2)n1 (single isomer, unassigned) [P113, 2-(2-(cyclopropanesulfonamido)pyrimidin-4-yl)-N-(5-(6-ethoxypyrazin-2-yl)pyridin-2-yl)-2-fluorobutanamide]
≥ 7.00 | +++ (>60 fold (+++)) | CCOc1cncc(-c2ccc(NC(=O)C(CC)c3cncc(NS(=O)(=O)C4CC4)n3)cc2)n1 (stereo not shown) [P202, 2-(6-(cyclopropanesulfonamido)pyrazin-2-yl)-N-(4-(6-ethoxypyrazin-2-yl)phenyl)butanamide]
≥ 7.00 | +++ (>60 fold (+++)) | CCOc1cncc(-c2ccc(C(=O)NC(CC)c3ccnc(NS(=O)(=O)C4CC4)n3)c(F)c2)n1 (stereo not shown) [P216, N-(1-(2-(cyclopropanesulfonamido)pyrimidin-4-yl)propyl)-4-(6-ethoxypyrazin-2-yl)-2-fluorobenzamide]
≥ 7.00 | + (2-30 fold (+)) | CCC(C(=O)Nc1ccc(-c2cncc(OC)n2)cc1F)c1ccnc(NS(=O)(=O)C2CC2)n1 (stereo not shown) [P95, 2-(2-(cyclopropanesulfonamido)pyrimidin-4-yl)-N-(2-fluoro-4-(6-methoxypyrazin-2-yl)phenyl)butanamide]
≥ 7.00 | +++ (>60 fold (+++)) | CCOc1cncc(-c2ccc(NC(=O)C(F)(CC)c3ccnc(NS(=O)(=O)C4CC4)n3)nc2)n1 (single isomer, unassigned) [P114, 2-(2-(cyclopropanesulfonamido)pyrimidin-4-yl)-N-(5-(6-ethoxypyrazin-2-yl)pyridin-2-yl)-2-fluorobutanamide]
≥ 7.00 | + (2-30 fold (+)) | CCOc1cncc(-c2ccc(NC(=O)C(CC)c3ccnc(NS(=O)(=O)C4CC4)n3)c(F)c2)n1 (stereo not shown) [P96, 2-(2-(cyclopropanesulfonamido)pyrimidin-4-yl)-N-(4-(6-ethoxypyrazin-2-yl)-2-fluorophenyl)butanamide]
6.00 to 7.00 | ++ (>30-60 fold (++)) | CCOc1cncc(-c2ccc(NC(=O)C(CC)c3cccc(NS(=O)(=O)C4CC4)n3)cc2)n1 (stereo not shown) [P191, 2-(6-(cyclopropanesulfonamido)pyridin-2-yl)-N-(4-(6-ethoxypyrazin-2-yl)phenyl)butanamide]
– | + (2-30 fold (+)) | CC(C)(C(=O)Nc1ccc(-c2cccnc2)cc1)c1ccnc(NS(=O)(=O)C2CC2)n1 [P59, 2-(2-(cyclopropanesulfonamido)pyrimidin-4-yl)-2-methyl-N-(4-(pyridin-3-yl)phenyl)propanamide]
